Results on 2 compounds are retold here after patent US6740634B1, “Sustained release compositions, process for producing the same and utilization thereof” (Takeda Chemical Industries, Ltd., priority 1998, dated 2004).

This data set is classed as physicochemical. The method, then:
To this salt, 0.5 ml of water was added, followed by stirring at room temperature for 4 hours, after which the liquid was filtered through a 0.2 μm filter and quantified by HPLC. The peptide B and 3-hydroxy-2-naphthoic acid concentrations were 2.37 g/l and 0.751 g/l, respectively.

Like-named read-outs stand apart in the source and are kept apart here. A value given as a limit tells only on which side of the number the result lay.

For orientation: solubility means the concentration that dissolves in the medium under given conditions. As to `CCNC(=O)[C@@H]1CCCN1C(=O)[C@H](CCCNC(=N)N)NC(=O)[C@H](CC(C)C)NC(=O)[C@@H](CC(C)C)NC(=O)[C@H](Cc1ccc(O)cc1)NC(=O)[C@H](CO)NC(=O)[C@H](Cc1c[nH]c2ccccc12)NC(=O)[C@H](Cc1c[nH]cn1)NC(=O)[C@@H]1CCC(=O)N1`, the “water solubility relative to the water solubility of the acetate of peptide B” value is given as “not more than 1/100”. Also, the solubility (3-hydroxy-2-naphthoic acid concentration in saturated aqueous solution (water solubility of the salt)) came out at 0.751 mg/mL. For the setting “peptide B concentration in saturated aqueous solution (water solubility of the salt)”, the solubility worked out at 2.37 mg/mL.

For the setting “water solubility”, `CCNC(=O)[C@@H]1CCCN1C(=O)[C@H](CCCNC(=N)N)NC(=O)[C@H](CC(C)C)NC(=O)[C@@H](CC(C)C)NC(=O)[C@H](Cc1ccc(O)cc1)NC(=O)[C@H](CO)NC(=O)[C@H](Cc1c[nH]c2ccccc12)NC(=O)[C@H](Cc1c[nH]cn1)NC(=O)[C@@H]1CCC(=O)N1` [acetate of peptide B, reference compound] registered a solubility of at least 1000 mg/mL.
